For three molecules, IC50 and inhibition results are on record in US20140363530A1, “COMPOSITION COMPRISING THE EXTRACT OF PINE TREE LEAF OR THE COMPOUNDS ISOLATED THEREFROM FOR THE PREVENTION AND TREATMENT OF CANCER DISEASE BY INHIBITING HPV VIRUS AND THE USES THEREBY” (priority 2012, published 2014).

Test [1] deals with A-549 (human adenocarcinoma of lung). Kind of test: SRB cytotoxicity test, A-549. In kind it is cell-based. As to conditions: Homo sapiens, read-out: Cytotoxicity IC50, A-549. The protocol:
(§1) To determine the cytotoxicity against human tumor cell line of the test samples prepared in Examples, following sulforhodamin B (SRB) bioassy test was performed according to the method disclosed in the literature (Skehan, P., et al., J. Natl. Cancer Inst., 82, 1990, 1107-1112).
(§2) Various human tumor cell lines, i.e., A-549 (human adenocarcinoma of lung, NCI), SK-OV-3 (human ovarian tumor, NCI), SK-MEL-2 (human malignant melanoma, NCI), HCT15 (human colon adenocarcinoma, NCI), MES-SA (human uterine carcinoma, NCI) and MES-SA/DX5 (multidrug resistant carcinoma subline of MES-SA, NCI) were used in the test.
(§3) The subcultured cell lines were detached from the surface of wall using by trypsin-EDTA solution and adjusted to various concentration of cell lines, i.e., 5×10^3 cells/well (A-549, HCT15), 1×10^4 cells/well (SK-MEL-2), 5×10^3 cells/well (SK-OV-3) in 96-well flat bottom microplate. The inoculated cell lines were incubated in CO2 incubator (MCO-20AIC, SANYO Electric Co., LTd.) to be attached on the bottom of incubator and the culture media was removed with aspirator. 6 logarithmic concentrations of the diluted test samples were added to each well containing cell line at 100 μl/well in a three fold dilution manner and the cell was incubated for 48 hours. The culture media in each well was removed and 100μ of 10% trichloroacetic acid was added thereto to be left alone at 4° C. for 1 hour and to fix the cells to the bottom of the plates. […] The cell plates were shaked with titer plate shaker (KOMA Orbital Shaker KE011, KOMABIOTech) for 10 mins to exude the staining solution and to determine the absorbance at 520 nm using by microplate spectrophotometer (Sunrise, TECAN).
(In general: The SRB assay estimates cell density from bound dye.)

Test [2] relates to SK-OV-3 (human ovarian tumor). Briefly: SRB cytotoxicity test, SK-OV-3. In kind it is cell-based. As to conditions: Homo sapiens, read-out: Cytotoxicity IC50, SK-OV-3. How it is done:
as §1, §2, §3

In test [3] the test system is SK-MEL-2 (human malignant melanoma). Kind of test: SRB cytotoxicity test, SK-MEL-2. It is filed as cell-based. To be noted: Homo sapiens, read-out: Cytotoxicity IC50, SK-MEL-2. How it is done: as §1, §2, §3
Test [4] relates to HCT15 (human colon adenocarcinoma). Briefly: SRB cytotoxicity test, HCT15. In kind it is cell-based. To be noted: Homo sapiens, HCT-15, 48 h. How it is done:
as §1, §2, §3

The subject of test [5] is MES-SA (human uterine carcinoma). Kind of test: SRB cytotoxicity test, MES-SA. It is filed as cell-based. As to conditions: Homo sapiens, MES-SA, 48 h. How it is done:
as §1, §2, §3

The test system of test [6] is MES-SA/DX5 (multidrug resistant carcinoma subline of MES-SA). Briefly: SRB cytotoxicity test, MES-SA/DX5. In kind it is cell-based, human. As to conditions: Homo sapiens, MES-SA/Dx5, 48 h, read-out: Cytotoxicity IC50, MES-SA/DX5. The protocol:
as §1, §2, §3

Another test relates to HCT15/CL02. Kind of test: SRB cytotoxicity test, HCT15/CL02. It is filed as cell-based, human. To be noted: Homo sapiens, HCT-15; Table 4, 48 hours. The protocol: To determine the cytotoxicity against human tumor cell line of the test samples prepared in Examples, following sulforhodamin B (SRB) bioassy test was performed according to the method disclosed in the literature (Skehan, P., et al., J. Natl. […] The inoculated cell lines were incubated in CO2 incubator (MCO-20AIC, SANYO Electric Co., LTd.) to be attached on the bottom of incubator and the culture media was removed with aspirator. 6 logarithmic concentrations of the diluted test samples were added to each well containing cell line at 100 μl/well in a three fold dilution manner and the cell was incubated for 48 hours. […] The cell plates were shaked with titer plate shaker (KOMA Orbital Shaker KE011, KOMABIOTech) for 10 mins to exude the staining solution and to determine the absorbance at 520 nm using by microplate spectrophotometer (Sunrise, TECAN).

Test [7] deals with HPV16 PVs. Kind of test: Virus inhibition test (in vitro), SEAP activity of 293TT cells infected with HPV pseudovirion. It is filed as cell-based. As to conditions: Human papillomavirus 16, read-out: inhibitory activity from HPV16 PVs. How it is done:
Prior to in vitro antiviral assay, 5×10^3 of 293TT cell was seeded on 96-well plate and incubated at 37° C. for 16 hours in 5% CO2 atmosphere. The culture media was removed and each extract was diluted to the concentration of 100 μg/ml or 50 μg/ml to distribute into each cell at the dose of 100 μl/cell. After treating with the extract for 16 hours, the culture media was removed and the cell was washed with PBS twice. The cell was infected by 106RLU/ml of HPV PVs at the dose of 100 μl/cell and incubated for 48 hours at 37° C. in 5% CO2 atmosphere. To determine the viral activity, the supernatant of the cell culture was used for determine the activity of secreted alkaline phosphatase (SEAP) using by Great EscAPE™ SEAP Chemiluminescence Kit (631738, Clontech, CA, USA). To determine the SEAP activity, relative light units (RLU) value was obtained using by Luminescence coulter (Micro beta triLux 1450, PerkinElmer, CT, USA) and the RLU values of the cell treated with the extract and untreated with the extract, were compared with each other. The decrease of SEAP activity was regarded as the inhibition effect against HPV PVs.
To determine the inhibitory effect on luciferase-comprising HPV virus contagion of the test samples prepared in Examples, following test was performed according to the method disclosed in the literature (Shaneyfelt et al., Virology Journal, 3:68, 2006, 1-11; Roden et al., J. Virol., 70, 1996, 5875-5883; Unckell et al., J. Virol., 71, 1997, 2934-2939; Touze et al., Nucleic Acids Research, 26, 1998, 1317-1323; Selinka et al., J. Virol., 77, 2003, 12961-12967; Klasse et al., Journal of General Virology, 83, 2002, 2091-2108)
5×10^3293TT cell was seeded on 96-well plate and incubate for 16 hours. 50 μg of test sample was mixed with the culture media in the concentration of 100 ug/ml and incubated for 16 hours. The media was washed with 100 μl of PBS twice and the cell was infected with 10^6RLU/ml of HPV pseudovirion at the dose of 100 μl/cell to incubate at 37° C., for 48 hours in 5% CO2 atmosphere.
5× lysis buffer in Great EscAPE™ SEAP Chemiluminescence Kit (631738, Clontech, CA, USA) was made to 1× and both of 45 μl of 1× lysis buffer and 15 μl of cell culture medium were added to 96-well plate (3912, Costar, NY, USA). 60 μl of the substrate in Great EscAPE™ SEAP Chemiluminescence kit was added thereto and the relative light units (RLU) value was obtained using by Luminescence coulter (Micro beta triLux 1450, PerkinElmer, CT, USA). The RLU values of the cell treated with the extract and untreated with the extract, were compared with each other and the decrease of SEAP activity was regarded as the inhibition effect against HPV PVs.

Test [8] concerns HPV16 PVs. Described as above. In kind it is cell-based. To be noted: Human papillomavirus 16, read-out: inhibitory activity on HPV16 PVs.

The structures appear in SMILES notation. In brackets after ≈: the same amount, converted by molar mass. Where two headings read alike, the source gives them in different places.

Turning to `COc1cccc2c1C(=O)c1c(O)c3c(c(O)c1C2=O)C[C@@](O)(C(=O)CO)C[C@@H]3O[C@H]1C[C@H](N)[C@H](O)[C@H](C)O1` [doxorubicin, reference compound], the IC50 in test [1] (A549, 48 h) turned out to be 0.0072 µg/mL (≈ 0.0132 µM); in test [2] (SK-OV-3, 48 h) it was 0.0104 µg/mL (≈ 0.0191 µM); in test [3] (SK-MEL-2, 48 h), 0.0012 µg/mL (≈ 0.00221 µM); in [4] (read-out: Cytotoxicity IC50, HCT15, Table 3, 48 hours), 0.0833 µg/mL (≈ 0.153 µM); in test [4] (read-out: Cytotoxicity IC50, HCT15, Table 4, 48 hours), 0.016 µg/mL (≈ 0.0294 µM); in test [5] (read-out: Cytotoxicity IC50, MES-SA, Table 1, extract and solvent fractions, 48 hours), 0.2 ng/mL (≈ 0.000368 µM). Further, the IC50 in test [5] (read-out: Cytotoxicity IC50, MES-SA, Table 2, purified extracts, 48 hours) worked out at 0.2 ng/mL (≈ 0.000368 µM); in test [5] (read-out: Cytotoxicity IC50, MES-SA, Table 3, 48 hours), 5.1 ng/mL (≈ 0.00938 µM); in test [5] (read-out: Cytotoxicity IC50, MES-SA, Table 4, 48 hours), 5.1 ng/mL (≈ 0.00938 µM); in [6] (Table 1, extract and solvent fractions, 48 hours), 0.412 µg/mL (≈ 0.758 µM); in test [6] (Table 2, purified extracts, 48 hours) it was 0.412 µg/mL (≈ 0.758 µM); in test [6] (Table 3, 48 hours), 1.45 µg/mL (≈ 2.67 µM). In addition, the IC50 in [6] (Table 4, 48 hours) came to 1.45 µg/mL (≈ 2.67 µM); with HCT15/CL02, 2.11 µg/mL (≈ 3.88 µM).

Regarding `C=C[C@]1(C)C=C2CC[C@@H]3[C@](C)(CCC[C@@]3(C)C(=O)O)[C@H]2CC1` [compound (j), sandaracopimaric acid], the inhibition at 50 µg/mL with HPV16 PVs [7] was in the range of 70 to 80%. Further, the IC50 in test [1] (A549, Table 3, 48 hours) turned out to be 13.6 µg/mL (≈ 45.1 µM); in [2] (SK-OV-3, Table 3, 48 hours), 12.1 µg/mL (≈ 40.1 µM); in test [3] (SK-MEL-2, Table 3, 48 hours), 11.2 µg/mL (≈ 36.9 µM); in test [4] (Table 3, 48 hours, read-out: Cytotoxicity IC50, HCT15), 13.6 µg/mL (≈ 44.9 µM); in test [5] (Table 3, 48 hours, read-out: Cytotoxicity IC50, MES-SA), 10400 ng/mL (≈ 34.6 µM); in [6] it was 11.1 µg/mL (≈ 36.6 µM). Further, the inhibition at 5 µg/mL in the test with HPV16 PVs [8] was about 50%.

Regarding `CC(C)c1ccc2c(c1)CC[C@H]1[C@](C)(C(=O)O)CCC[C@]21C` [compound (i), dehydroabietic acid], the inhibition at 50 µg/mL in the test on HPV16 PVs [7] lay within 70 to 80%. Further, the IC50 in test [1] (A549, 48 h) amounted to 13.4 µg/mL (≈ 44.7 µM); in test [2] (SK-OV-3, 48 h), 17.3 µg/mL (≈ 57.5 µM); in test [3] (SK-MEL-2, 48 h), 13 µg/mL (≈ 43.3 µM); in [4] (read-out: Cytotoxicity IC50, HCT15) it was 15.7 µg/mL (≈ 52.2 µM); in [5] (read-out: Cytotoxicity IC50, MES-SA), 10300 ng/mL (≈ 34.4 µM); in test [6], 12 µg/mL (≈ 40 µM). Further, the inhibition at 5 µg/mL in the test with HPV16 PVs [8] is about 50%.
